# Columns and labels:
# velvetleaf = assay: Test B pre/postemergence velvetleaf; format: in vivo, Abutilon theophrasti
# Summary of the method: (§1)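 Response is a visual 0-to-10 score relative to untreated plants, where 0 means no effect and 10 means complete control, taken twelve to sixteen days after application. Treatments went onto soil at planting and onto foliage of 1- to 4-leaf plants, using a surfactant-containing non-phytotoxic solvent.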
# rape = assay: Test B pre/postemergence rape; format: in vivo, Brassica napus
# Summary of the method: as §1
# pigweed = assay: Test B pre/postemergence pigweed; format: in vivo, Amaranthus retroflexus
# Summary of the method: as §1
# giant foxtail = assay: Test B pre/postemergence giant foxtail; format: in vivo, Setaria faberii
# Summary of the method: as §1
# soybean = assay: Test B pre/postemergence soybean; format: in vivo, Glycine max
# Summary of the method: as §1
# purple nutsedge = assay: Test B pre/postemergence purple nutsedge; format: in vivo, Cyperus rotundus
# Summary of the method: as §1
# blackgrass = assay: Test B pre/postemergence blackgrass; format: in vivo, Alopecurus myosuroides
# Summary of the method: as §1
# crabgrass = assay: Test B pre/postemergence crabgrass; format: in vivo, Digitaria sanguinalis
# Summary of the method: as §1
# sugar beet = assay: Test B pre/postemergence sugar beet; format: in vivo, Beta vulgaris
# Summary of the method: as §1
# corn = assay: Test B pre/postemergence corn; format: in vivo, Zea mays
# Summary of the method: as §1
# wild oat = assay: Test B pre/postemergence wild oat; format: in vivo, Avena fatua
# Summary of the method: as §1
# cocklebur = assay: Test B pre/postemergence cocklebur; format: in vivo, Xanthium strumarium
# Summary of the method: as §1
# morningglory = assay: Test B pre/postemergence morningglory; format: in vivo, Ipomoea hederacea
# Summary of the method: as §1
# surinam grass = assay: Test B pre/postemergence surinam grass; format: in vivo, Brachiaria decumbens
# Summary of the method: as §1
# bedstraw = assay: Test B pre/postemergence bedstraw; format: in vivo, Galium aparine; conditions: for Bedstraw plant response rating: 10 is complete control
# Summary of the method: as §1
# wheat = assay: Test B pre/postemergence wheat; format: in vivo, Triticum aestivum
# Summary of the method: as §1
# [1] = Postemergence, Rate 62 g/ha, scale of 0 to 10, 0 is no effect, 10 is complete control
# [2] = Postemergence, Rate 125 g/ha, scale 0 to 10, 0 is no effect, 10 is complete control
# [3] = Postemergence, Rate 500 g/ha, scale 0 to 10, 0 is no effect, 10 is complete control
# [4] = Preemergence, Rate 62 g/ha, scale of 0 to 10 where 0 is no effect and 10 is complete control
# [5] = Preemergence, Rate 125 g/ha, scale 0 to 10, 0 is no effect, 10 is complete control
# [6] = Preemergence, Rate 500 g/ha, scale of 0 to 10 where 0 is no effect and 10 is complete control
# [7] = Postemergence, Rate 250 g/ha, scale 0 to 10
# [8] = Preemergence, Rate 250 g/ha, scale 0 to 10, 0 is no effect, 10 is complete control
smiles,measurement,setting,value
CC(C)=CCn1c(=O)on(C(=O)N(c2ccc(F)cc2F)C(C)C)c1=O [Compound 515],Velvetleaf plant response rating,velvetleaf; [1],2
same,Velvetleaf plant response rating,velvetleaf; [2],4
same,"Plant response rating, Velvetleaf",velvetleaf; [3],8
same,"Plant response rating, Velvetleaf",velvetleaf; [4],0
same,Velvetleaf plant response rating,velvetleaf; [5],0
same,Velvetleaf plant response rating,velvetleaf; [6],6
same,Rape plant response rating,rape; [1],4
same,Rape plant response rating,rape; [2],4
same,"Plant response rating, Rape",rape; [3],6
same,"Plant response rating, Rape",rape; [4],0
same,Rape plant response rating,rape; [5],4
same,Rape plant response rating,rape; [6],10
same,Redroot pigweed plant response rating,pigweed; [1],3
same,Redroot pigweed plant response rating,pigweed; [2],4
same,"Plant response rating, Redroot pigweed",pigweed; [3],5
same,"Plant response rating, Redroot pigweed",pigweed; [4],8
same,Redroot pigweed plant response rating,pigweed; [5],9
same,Redroot pigweed plant response rating,pigweed; [6],10
same,Giant foxtail plant response rating,giant foxtail; [1],8
same,Giant foxtail plant response rating,giant foxtail; [2],9
same,"Plant response rating, Giant foxtail",giant foxtail; [3],9
same,"Plant response rating, Giant foxtail",giant foxtail; [4],10
same,Giant foxtail plant response rating,giant foxtail; [5],10
same,Giant foxtail plant response rating,giant foxtail; [6],10
same,Soybean plant response rating,soybean; [1],4
same,Soybean plant response rating,soybean; [2],4
same,"Plant response rating, Soybean",soybean; [3],7
same,"Plant response rating, Soybean",soybean; [4],0
same,Soybean plant response rating,soybean; [5],0
same,Soybean plant response rating,soybean; [6],0
same,Nutsedge plant response rating,purple nutsedge; [1],0
same,Nutsedge plant response rating,purple nutsedge; [2],0
same,"Plant response rating, Nutsedge",purple nutsedge; [3],0
same,"Plant response rating, Nutsedge",purple nutsedge; [4],0
same,Nutsedge plant response rating,purple nutsedge; [5],0
same,Nutsedge plant response rating,purple nutsedge; [6],0
same,Blackgrass plant response rating,blackgrass; [1],0
same,Blackgrass plant response rating,blackgrass; [2],0
same,Blackgrass plant response rating,blackgrass; [7],0
same,"Plant response rating, Blackgrass",blackgrass; [3],1
same,"Plant response rating, Blackgrass",blackgrass; [4],3
same,Blackgrass plant response rating,blackgrass; [5],5
same,Blackgrass plant response rating,blackgrass; [8],5
same,Blackgrass plant response rating,blackgrass; [6],8
same,Crabgrass plant response rating,crabgrass; [1],4
same,Crabgrass plant response rating,crabgrass; [2],8
same,Crabgrass plant response rating,crabgrass; [7],9
same,"Plant response rating, Crabgrass",crabgrass; [3],9
same,"Plant response rating, Crabgrass",crabgrass; [4],6
same,Crabgrass plant response rating,crabgrass; [5],7
same,Crabgrass plant response rating,crabgrass; [6],9
same,Sugarbeets plant response rating,sugar beet; [1],3
same,Sugarbeets plant response rating,sugar beet; [2],3
same,"Plant response rating, Sugarbeets",sugar beet; [3],3
same,"Plant response rating, Sugarbeets",sugar beet; [4],0
same,Sugarbeets plant response rating,sugar beet; [5],4
same,Sugarbeets plant response rating,sugar beet; [6],7
same,Corn plant response rating,corn; [1],0
same,Corn plant response rating,corn; [2],0
same,Corn plant response rating,corn; [7],0
same,"Plant response rating, Corn",corn; [3],0
same,"Plant response rating, Corn",corn; [4],0
same,Corn plant response rating,corn; [5],0
same,Corn plant response rating,corn; [6],5
same,Wild oats plant response rating,wild oat; [1],0
same,Wild oats plant response rating,wild oat; [2],0
same,"Plant response rating, Wild oats",wild oat; [3],0
same,"Plant response rating, Wild oats",wild oat; [4],3
same,Wild oats plant response rating,wild oat; [5],5
same,Wild oats plant response rating,wild oat; [6],9
same,Cocklebur plant response rating,cocklebur; [1],0
same,Cocklebur plant response rating,cocklebur; [2],3
same,Cocklebur plant response rating,cocklebur; [7],3
same,"Plant response rating, Cocklebur",cocklebur; [3],5
same,"Plant response rating, Cocklebur",cocklebur; [4],0
same,Cocklebur plant response rating,cocklebur; [5],0
same,Cocklebur plant response rating,cocklebur; [8],0
same,Cocklebur plant response rating,cocklebur; [6],0
same,Morningglory plant response rating,morningglory; [1],2
same,Morningglory plant response rating,morningglory; [2],2
same,"Plant response rating, Morningglory",morningglory; [3],6
same,"Plant response rating, Morningglory",morningglory; [4],0
same,Morningglory plant response rating,morningglory; [5],0
same,Morningglory plant response rating,morningglory; [6],0
same,B. signalgrass plant response rating,surinam grass; [1],0
same,B. signalgrass plant response rating,surinam grass; [2],0
same,B. signalgrass plant response rating,"surinam grass; Postemergence, Rate 250 g/ha, scale 0 to 10, 0 no effect, 10 complete control",0
same,"Plant response rating, B. signalgrass",surinam grass; [3],3
same,"Plant response rating, B. signalgrass",surinam grass; [4],2
same,B. signalgrass plant response rating,surinam grass; [5],8
same,B. signalgrass plant response rating,surinam grass; [8],8
same,B. signalgrass plant response rating,"surinam grass; Preemergence, Rate 500 g/ha, scale 0 to 10, 0 is no effect, 10 is complete control",9
same,Bedstraw plant response rating,"bedstraw; Postemergence, Rate 62 g/ha, scale of 0 to 10, 0 is no effect",6
same,Bedstraw plant response rating,"bedstraw; Postemergence, Rate 125 g/ha, scale 0 to 10, 0 is no effect",6
same,"Plant response rating, Bedstraw",bedstraw; [4],0
same,Bedstraw plant response rating,"bedstraw; Preemergence, Rate 125 g/ha, scale 0 to 10, 0 is no effect",0
same,Bedstraw plant response rating,"bedstraw; Preemergence, Rate 250 g/ha, scale 0 to 10, 0 is no effect",0
same,Bedstraw plant response rating,"bedstraw; Preemergence, Rate 500 g/ha, scale 0 to 10, 0 is no effect",3
same,Wheat plant response rating,wheat; [1],0
same,Wheat plant response rating,wheat; [2],0
same,"Plant response rating, Wheat",wheat; [3],0
same,"Plant response rating, Wheat",wheat; [4],0
same,Wheat plant response rating,wheat; [5],0
same,Wheat plant response rating,wheat; [6],7

# Source: US6737383B1, “Herbicidal oxadiazolidines” (priority 1999, dated 2004)
